Calls of active or inactive are those of the source. The calls are words filed in the database; no cut-off is given here.
Key:
[1] = Cytotoxicity against mouse RAW264.7 cells measured after 4 hrs by MTT assay; type: toxicity
Trypanosoma cruzi [2] = assay: Antitrypanosomal activity against Trypanosoma cruzi Dm28c epimastigotes after 24 hrs by MTT assay; type: functional
Trypanosoma cruzi [3] = assay: Antitrypanosomal activity against Trypanosoma cruzi Dm28c epimastigotes at 10 to 100 uM measured after 24 hrs by MTT assay; type: functional
[4] = Oxidation potential of compound against Ag/Agcl reference electrode at 1 mM by cyclic voltametry; type: physicochemical; settings: 1000 µM
[5] = Antioxidant activity assessed as AAPH-induced peroxyl radical scavenging activity by measuring ORAC-FL index at 0.5 to 2.5 uM preincubated for 15 mins followed by AAPH addition measured every 1 min for 120 mins by fluorescence assay relative to trolox; type: functional
[6] = Antioxidant activity assessed as photolysis-induced hydroxyl radical scavenging activity at 1 mM measured after 2 mins using DMPO spin trap by ESR spectroscopic method relative to control; type: functional
[7] = Oxidation potential of compound at group 2 hydroxyl against Ag/Agcl reference electrode at 1 mM by cyclic voltametry
[8] = Selectivity index, ratio of IC50 for cytotoxicity against mouse RAW264.7 cells to IC50 for antitrypanosomal activity against epimastigote stage of Trypanosoma cruzi Dm28c; type: toxicity, cell-based; settings: read-out: Ratio IC50
[9] = Oxidation potential of compound at group 1 hydroxyl against Ag/Agcl reference electrode at 1 mM by cyclic voltametry; type: physicochemical; settings: 1000 µM
[10] = Induction of free radical species generation assessed as compound-PBN adduct formation at 1 mM by ESR spectroscopic method; type: physicochemical; settings: 1000 µM
Trypanosoma cruzi [11] = assay: Induction of free radical species generation in microsomes of Trypanosoma cruzi Dm28c epimastigotes spin adduct formation at 5 mM measured after 10 mins using DMPO spin trap by ESR spectroscopic method; type: functional
[12] = Selectivity index, ratio of IC50 for cytotoxicity against mouse RAW264.7 cells to IC50 for antitrypanosomal activity against trypomastigote stage of Trypanosoma cruzi Dm28c; type: toxicity, cell-based; settings: read-out: Ratio IC50
Trypanosoma cruzi [13] = assay: Antitrypanosomal activity against trypomastigote stage of Trypanosoma cruzi Dm28c infected in African green monkey Vero cells assessed as growth inhibition at 20 to 100 uM incubated for 5 to 7 days post infection measured after 24 hrs by MTT assay; type: functional, cell-based
Trypanosoma cruzi [14] = assay: Potency index, ratio of nifurtimox IC50 to compound IC50 for Trypanosoma cruzi Dm28c epimastigotes; type: functional
Trypanosoma cruzi [15] = assay: Antitrypanosomal activity against trypomastigote stage of Trypanosoma cruzi Dm28c infected in African green monkey Vero cells assessed as growth inhibition incubated for 5 to 7 days post infection measured after 24 hrs by MTT assay; type: functional, cell-based
Trypanosoma cruzi [16] = assay: Potency index, ratio of nifurtimox IC50 to compound IC50 for Trypanosoma cruzi Dm28c trypamastigotes infected in African green monkey Vero cells; type: functional

SMILES | IC50 at 4 h [1] | IC50 (Trypanosoma cruzi [2]) | Activity (Trypanosoma cruzi [3]) | Activity [4] | Activity [5] | Activity [6] | Activity [7] | selectivity ratio [8] | Activity [9] | Activity [10] | Activity (Trypanosoma cruzi [11]) | selectivity ratio [12] | Activity (Trypanosoma cruzi [13]) | Ratio IC50 (Trypanosoma cruzi [14]) | IC50 (Trypanosoma cruzi [15]) | Ratio IC50 (Trypanosoma cruzi [16])
O=c1oc2c(O)cccc2cc1-c1cccc(O)c1 | > 100 µM | > 100 µM | Active | 0.74 V | 3.12 | – | – | – | – | – | – | – | – | – | – | –
O=c1oc2c(O)c(O)ccc2cc1-c1ccc(O)c(O)c1 | 97.5 µM | 47 µM | Active | – | 5.38 | 24.3% | 0.79 V | 2.07 | 0.64 V | – | – | – | – | – | – | –
O=c1oc2ccc(O)cc2cc1-c1cccc(O)c1 | > 100 µM | > 100 µM | Active | – | 5.47 | 100% | 1.17 V | – | 0.8 V | Active | – | – | – | – | – | –
O=c1oc2c(O)cccc2cc1-c1ccc(O)c(O)c1 | 115 µM | 84.3 µM | Active | 0.81 V | 4.59 | – | – | 1.37 | – | – | – | – | – | – | – | –
O=c1oc2c(O)c(O)ccc2cc1-c1ccccc1 | 26.1 µM | 8.9 µM | Active | 0.81 V | 1.11 | – | – | 2.93 | – | – | Active | – | – | – | – | –
O=c1oc2cc(O)cc(O)c2cc1-c1ccccc1 | > 100 µM | 6.15 µM | Active | 1.16 V | 1.81 | 100% | – | > 16.3 | – | Active | Active | – | – | – | – | –
CC1CS(=O)(=O)CCN1/N=C/c1ccc([N+](=O)[O-])o1 (configuration not stated) [NIFURTIMOX] | 263 µM | 17.4 µM | – | – | – | – | – | 15.1 | – | – | – | 26.3 | – | – | – | –
O=c1oc2c(O)c(O)ccc2cc1-c1cccc(O)c1 | 398 µM | 28.6 µM | Active | 0.81 V | 2.95 | 26.1% | – | 13.9 | – | – | – | – | – | – | – | –
O=c1oc2cc(O)cc(O)c2cc1-c1cccc(O)c1 | > 100 µM | > 100 µM | Active | – | 1.95 | – | – | – | – | Active | – | – | – | – | – | –
O=c1oc2ccc(O)cc2cc1-c1ccccc1O | > 100 µM | > 100 µM | Active | 0.79 V | 5.3 | – | – | – | – | Active | – | – | – | – | – | –
O=c1oc2c(O)c(O)ccc2cc1-c1ccccc1O | 68.9 µM | 1.31 µM | Active | 0.78 V | 2.23 | – | – | 52.6 | – | – | Active | 1.73 | Active | 10 - 13 | 39.7 µM | <=13
